Earlier results on two compounds are cited in patent publication US20130315934A1, “Methods and Compositions for Assessing and Treating Cancer” (Yale University, priority 2010, published 2013).

The target of data set [1] is PAK-4 (Homo sapiens, UniProt O96013). As to conditions: PAK family members.
Data set [2] concerns YULOVY melanoma cells possessing the S522I variant. The following applies: cell culture, YULOVY melanoma cells (ACK1 S522I variant).
For data set [3], the system named is YUHEF melanoma cells harboring ACK1-S212L. The following applies: cell culture.
The target in data set [4] is purified ACK1 (Homo sapiens, UniProt Q07912). As to conditions: in vitro, purified enzyme.
Chain of purified ACK1 (Q07912 whole entry): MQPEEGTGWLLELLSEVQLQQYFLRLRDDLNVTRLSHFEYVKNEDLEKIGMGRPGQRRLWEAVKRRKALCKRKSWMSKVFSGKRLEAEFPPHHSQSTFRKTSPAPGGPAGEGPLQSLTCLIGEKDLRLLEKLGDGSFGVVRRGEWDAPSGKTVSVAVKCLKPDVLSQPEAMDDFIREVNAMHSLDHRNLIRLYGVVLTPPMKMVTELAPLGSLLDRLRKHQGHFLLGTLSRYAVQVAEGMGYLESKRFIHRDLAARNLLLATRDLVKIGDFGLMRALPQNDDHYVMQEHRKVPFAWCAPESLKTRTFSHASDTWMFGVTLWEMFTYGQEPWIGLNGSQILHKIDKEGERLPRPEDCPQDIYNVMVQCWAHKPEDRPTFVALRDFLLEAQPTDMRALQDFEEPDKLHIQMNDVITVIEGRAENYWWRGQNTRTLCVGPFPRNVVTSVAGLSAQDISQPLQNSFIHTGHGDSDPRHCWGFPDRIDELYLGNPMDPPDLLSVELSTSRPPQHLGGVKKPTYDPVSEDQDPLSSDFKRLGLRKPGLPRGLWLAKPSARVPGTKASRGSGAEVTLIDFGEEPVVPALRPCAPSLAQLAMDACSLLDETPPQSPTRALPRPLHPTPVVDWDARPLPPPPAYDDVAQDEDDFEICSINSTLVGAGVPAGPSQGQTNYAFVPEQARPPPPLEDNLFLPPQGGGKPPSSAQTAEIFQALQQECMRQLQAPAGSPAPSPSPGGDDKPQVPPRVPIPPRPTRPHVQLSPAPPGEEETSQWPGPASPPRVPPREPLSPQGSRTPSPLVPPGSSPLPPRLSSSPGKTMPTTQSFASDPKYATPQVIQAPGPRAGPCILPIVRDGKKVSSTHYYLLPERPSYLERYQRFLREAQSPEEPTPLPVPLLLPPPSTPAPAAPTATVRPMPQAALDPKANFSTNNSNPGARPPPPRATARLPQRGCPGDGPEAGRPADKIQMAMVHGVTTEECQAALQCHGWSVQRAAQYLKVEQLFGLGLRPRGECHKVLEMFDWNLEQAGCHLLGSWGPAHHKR

Chain of PAK-4 (O96013 whole entry): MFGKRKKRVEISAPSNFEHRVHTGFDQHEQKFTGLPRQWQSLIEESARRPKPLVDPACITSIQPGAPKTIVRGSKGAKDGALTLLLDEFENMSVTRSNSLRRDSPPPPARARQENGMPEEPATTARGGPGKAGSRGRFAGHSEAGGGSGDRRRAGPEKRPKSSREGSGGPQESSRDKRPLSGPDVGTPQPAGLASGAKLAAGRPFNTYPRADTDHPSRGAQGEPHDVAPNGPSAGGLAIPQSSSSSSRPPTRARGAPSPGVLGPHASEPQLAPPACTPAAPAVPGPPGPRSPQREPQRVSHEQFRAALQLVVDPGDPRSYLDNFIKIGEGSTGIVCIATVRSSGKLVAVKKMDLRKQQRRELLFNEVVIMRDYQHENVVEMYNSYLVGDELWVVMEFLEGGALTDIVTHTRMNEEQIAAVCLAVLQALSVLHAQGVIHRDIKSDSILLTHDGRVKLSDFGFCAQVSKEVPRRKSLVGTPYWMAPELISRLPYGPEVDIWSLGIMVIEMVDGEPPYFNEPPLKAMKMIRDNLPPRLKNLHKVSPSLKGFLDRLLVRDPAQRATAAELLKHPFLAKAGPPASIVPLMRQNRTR

As for `Cc1nc(Nc2[nH]nc3c2CN(C(=O)N[C@H](CN(C)C)c2ccccc2)C3(C)C)c2sccc2n1` [PF-3758309], the “PAK family selectivity of inhibition” value in data set [1] is reported as “inhibit only PAK-4”.
Consider `CCCS(=O)(=O)Nc1ccc(F)c(C(=O)c2c[nH]c3ncc(-c4ccc(Cl)cc4)cc23)c1F` [PLX4032], for which the inhibition of proliferation entry in data set [2] and in data set [3] was “did not inhibit the proliferation” in each case. The “inhibition of purified ACK1” value in data set [4] was “highly effective in vitro inhibitor”.
